The source made the active and inactive calls. No cut-off for these calls is given here.
Legend:
[1] = Growth inhibition of human LOX cells expressing B-Raf V600E mutant by MTT assay; assay type: functional, cell-based
NCI-H460 = assay: Growth inhibition of human […] mutant by MTT assay; assay type: functional, cell-based
MIA PaCa-2 [2] = assay: Growth inhibition of human MIAPaCa2 cells expressing K-Ras […] mutant by MTT assay; assay type: functional, cell-based
HT-29 [3] = assay: Cell cycle arrest in human HT-29 cells assessed as accumulation at G1 phase; assay type: functional, cell-based
HT-29 [4] = assay: Induction of apoptosis in human HT-29 cells; assay type: functional, cell-based
LOX = assay: Induction of apoptosis in human LOX cells; assay type: functional, cell-based
HT-29 [5] = assay: Antitumor activity against human HT-29 cells expressing B-Raf V600E mutant xenografted in nude mouse assessed as tumor growth inhibition at 50 mg/kg, po bid; assay type: functional; conditions: read-out: GI
MIA PaCa-2 [6] = assay: Antitumor activity against human MIAPaCa2 cells expressing K-Ras G12C mutant xenografted in nude mouse assessed as tumor growth inhibition at 50 mg/kg, po bid; assay type: functional; conditions: read-out: GI
Mus musculus [7] = assay: Toxicity in human H460 cells expressing K-Ras Q61H mutant xenografted nude mouse assessed as gross signs of adverse effect at 500 mg/kg, po administered weekly once for 3 weeks; assay type: organism-based; design: dose 500 mg/kg, route oral; conditions: in vivo, 504 h
Mus musculus [8] = assay: Inhibition of MEK-mediated ERK phosphorylation in tumor of human LOX cells expressing B-Raf V600E mutant xenografted nude mouse at 100 mg/kg, po after 1 hr by Western blot analysis relative to control; assay type: functional
[9] = Plasma concentration in human LOX cells expressing B-Raf V600E mutant xenografted nude mouse at 100 mg/kg, po after 4 hrs; assay type: ADME, organism-based; design: dose 100 mg/kg, route oral
[10] = Drug level in human LOX cells expressing B-Raf V600E mutant xenografted nude mouse tumor at 100 mg/kg, po after 1 hr; assay type: ADME, organism-based, Neoplasm; design: dose 100 mg/kg, route oral; conditions: read-out: Drug uptake
[11] = Drug level in human LOX cells expressing B-Raf V600E mutant xenografted nude mouse tumor at 100 mg/kg, po after 12 hrs; assay type: ADME, organism-based, Neoplasm; design: dose 100 mg/kg, route oral; conditions: read-out: Drug uptake
[12] = Plasma concentration in human HT-29 cells expressing B-Raf V600E mutant xenografted nude mouse at 100 mg/kg, po after 2 hrs; assay type: ADME, organism-based; design: dose 100 mg/kg, route oral
[13] = Drug level in human HT-29 cells expressing B-Raf V600E mutant xenografted nude mouse tumor at 100 mg/kg, po after 12 hrs; assay type: ADME, organism-based, Neoplasm; design: dose 100 mg/kg, route oral; conditions: read-out: Drug uptake
Mus musculus [14] = assay: Average drug concentration in human MIAPaCa2 cells expressing K-Ras G12C mutant xenografted nude mouse plasma at 50 mg/kg, po bid; assay type: ADME, organism-based, MIA PaCa-2; design: dose 50 mg/kg, route oral; conditions: in vivo
[15] = biological target: T1, Dual specificity mitogen-activated protein kinase kinase; MEK1/2 (Homo sapiens) (UniProt P36507+Q02750); conditions: HT-29, 2 to 10 uM
Description: Inhibition of MEK1/2 in human HT-29 cells assessed as down regulation of CDK4/cyclin D1 expression at 2 to 10 uM by Western blot analysis

[16] = biological target: T1, Dual specificity mitogen-activated protein kinase kinase; MEK1/2 (Homo sapiens); conditions: LOX, 2 to 10 uM
Description: Inhibition of MEK1/2 in human LOX cells assessed as inhibition of ERK1/2 phosphorylation at 2 to 10 uM by Western blot analysis

T1 sequence (P36507 whole entry, looked up): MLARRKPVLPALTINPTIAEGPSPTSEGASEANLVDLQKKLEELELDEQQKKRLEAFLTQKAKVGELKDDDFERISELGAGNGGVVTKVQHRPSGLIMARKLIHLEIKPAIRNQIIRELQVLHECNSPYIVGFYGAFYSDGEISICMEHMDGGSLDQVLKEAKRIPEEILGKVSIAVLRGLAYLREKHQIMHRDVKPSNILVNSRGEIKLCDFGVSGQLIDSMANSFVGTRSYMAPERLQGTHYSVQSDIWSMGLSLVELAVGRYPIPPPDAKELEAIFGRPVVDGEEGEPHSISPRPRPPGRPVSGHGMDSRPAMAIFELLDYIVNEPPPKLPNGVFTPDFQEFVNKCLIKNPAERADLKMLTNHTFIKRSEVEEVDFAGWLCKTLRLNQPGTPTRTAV
T1 sequence (Q02750 whole entry, looked up): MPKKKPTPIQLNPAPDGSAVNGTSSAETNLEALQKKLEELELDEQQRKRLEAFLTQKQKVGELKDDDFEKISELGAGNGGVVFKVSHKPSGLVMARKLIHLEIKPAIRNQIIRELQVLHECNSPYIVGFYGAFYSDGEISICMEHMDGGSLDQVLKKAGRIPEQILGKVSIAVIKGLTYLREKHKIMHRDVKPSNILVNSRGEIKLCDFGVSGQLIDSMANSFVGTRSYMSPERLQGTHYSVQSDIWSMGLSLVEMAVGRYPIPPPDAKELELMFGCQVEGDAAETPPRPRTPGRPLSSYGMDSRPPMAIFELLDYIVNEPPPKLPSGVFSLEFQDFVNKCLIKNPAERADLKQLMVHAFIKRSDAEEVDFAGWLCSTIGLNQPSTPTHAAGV

- IC50 (NCI-H460): 300 nM
- IC90 (NCI-H460): 3080 nM
- IC50 (MIA PaCa-2 [2]): 1250 nM
- IC90 (MIA PaCa-2 [2]): 5110 nM
- concentration at 4 h [9]: 4140 ng/mL
- concentration at 1 h [10]: 1030 ng/g
- concentration at 12 h [11]: 318 ng/g
- concentration at 2 h [12]: 9360 ng/mL
- concentration at 12 h [13]: 321 ng/g
- Cave (Mus musculus [14]): 1567 ng/mL
- inhibition [15]: Active
- inhibition [16]: Active
Compound: C[C@@H](c1ccccc1)[C@@H](C(=O)Nc1ccc(I)cc1F)N1C(=O)N[C@H](c2ccc(OC[C@H](O)CO)cc2)C1=O
- IC50 [1]: 18 nM
- IC90 [1]: 720 nM
- Activity (HT-29 [3]): Active
- Activity (HT-29 [4]): Active
- Activity (LOX): Active
- inhibition in vivo at 50 mg/kg (HT-29 [5]): 75%
- inhibition in vivo at 50 mg/kg (MIA PaCa-2 [6]): 84%
- Activity (Mus musculus [7]): Non-toxic
- inhibition in vivo at 100 mg/kg (Mus musculus [8]): 77%

From ChEMBL document CHEMBL1955803, “Preclinical in vivo evaluation of efficacy, pharmacokinetics, and pharmacodynamics of a novel MEK1/2 kinase inhibitor RO5068760 in multiple tumor models” (Mol Cancer Ther, 2010)
